Reference: patent US11155523B2, “Biphenyl compound as CCR2/CCR5 receptor antagonist” (Medshine Discovery Inc., priority 2016, dated 2021)

Experiments:
CYP2D6 = molecular target: T1, CYP2D6 (Homo sapiens, UniProt P10635); assay: Inhibition of human liver microsomal CYP2D6 (dextromethorphan probe); type: in vitro ADME; conditions: human liver microsomes
T1 construct: from tissue; host or cells: human liver microsomes
Protocol: (§1) Experimental Example 4 Inhibition Effect on the Activity of Human Liver Microsomal Cytochrome P450 Isoezymes (CYP1A2, CYP2C9, CYP2C19, CYP2D6 and CYP3A4)
(§2) A total of 5 specific probe substrates for CYP's five isozymes, Phenacetin (CYP1A2), Diclofenac (CYP2C9), […] (S)-Mephenytoin, CYP2C19), Dextromethorphan (CYP2D6) and Midazolam (CYP3A4) were incubated with human liver microsomes and test compounds, respectively, and reduced nicotinamide adenine dinucleotide phosphate (NADPH) was added to initiate the reaction. After the reaction, the sample was processed and liquid chromatography tandem mass spectrometry (LC-MS/MS) was used to quantitatively detect the […] metabolites produced by the specific substrate, Acetaminophen and 4′-hydroxydiclofenac, 4′-hydroxymephenytoin, Dextrorphan and 1′-hydroxymidazolam, in order to calculate the corresponding half maximal inhibitory concentration (IC50).

CCR5 = molecular target: T2, CCR5 (Homo sapiens, UniProt P51681); assay: CCR5 in vitro test: intracellular calcium signal detected by FLIPR; type: cell-based; conditions: HEK293 cells expressing CCR5, agonist RANTES at EC80, calcium signal
T2 construct: expressed in transfected cells; host or cells: HEK293, clone C13, passage P4
T2 sequence (P51681 whole entry, species assumed): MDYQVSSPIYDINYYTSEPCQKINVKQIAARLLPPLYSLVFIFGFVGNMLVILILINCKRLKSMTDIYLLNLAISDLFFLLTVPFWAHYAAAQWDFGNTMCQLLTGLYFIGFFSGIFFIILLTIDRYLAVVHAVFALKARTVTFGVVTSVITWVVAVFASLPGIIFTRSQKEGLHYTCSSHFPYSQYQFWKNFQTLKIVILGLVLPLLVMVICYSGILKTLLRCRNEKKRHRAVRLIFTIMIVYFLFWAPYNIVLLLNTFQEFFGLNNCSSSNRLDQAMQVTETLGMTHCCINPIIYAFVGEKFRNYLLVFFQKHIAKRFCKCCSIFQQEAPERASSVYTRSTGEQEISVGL
Procedure, shortened: (§3)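 Receptor-expressing cells loaded with Fluo-4 Direct and probenecid (2.5 mM final), then preincubated with compounds (11-point 1:3 series) before challenge at EC80 of agonist (MCP-1 for CCR2, RANTES for CCR5). FLIPR calcium max−min signal; IC50 fitted.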

CYP2C9 = molecular target: T3, CYP2C9 (Homo sapiens, UniProt P11712); assay: Inhibition of human liver microsomal CYP2C9 (diclofenac probe); type: in vitro ADME; conditions: human liver microsomes
T3 construct: from tissue; host or cells: human liver microsomes
T3 sequence (P11712 whole entry): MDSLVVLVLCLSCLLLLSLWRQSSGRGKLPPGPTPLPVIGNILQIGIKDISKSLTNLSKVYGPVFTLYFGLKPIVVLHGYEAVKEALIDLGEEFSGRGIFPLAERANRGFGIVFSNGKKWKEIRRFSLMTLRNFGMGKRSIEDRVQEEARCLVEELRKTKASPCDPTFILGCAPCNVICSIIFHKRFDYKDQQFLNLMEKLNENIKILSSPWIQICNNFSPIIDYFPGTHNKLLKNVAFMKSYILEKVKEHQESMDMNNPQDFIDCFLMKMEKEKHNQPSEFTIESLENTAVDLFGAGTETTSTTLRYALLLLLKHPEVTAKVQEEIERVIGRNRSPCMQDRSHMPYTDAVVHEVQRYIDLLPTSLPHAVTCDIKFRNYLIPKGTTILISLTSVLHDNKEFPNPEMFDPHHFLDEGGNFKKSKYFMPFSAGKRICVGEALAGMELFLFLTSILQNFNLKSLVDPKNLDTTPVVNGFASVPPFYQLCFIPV
Protocol: as §1, §2

CYP2C19 = molecular target: T4, CYP2C19 (Homo sapiens, UniProt P33261); assay: Inhibition of human liver microsomal CYP2C19 ((S)-mephenytoin probe); type: in vitro ADME; conditions: human liver microsomes
T4 construct: from tissue; host or cells: human liver microsomes
T4 sequence (P33261 whole entry): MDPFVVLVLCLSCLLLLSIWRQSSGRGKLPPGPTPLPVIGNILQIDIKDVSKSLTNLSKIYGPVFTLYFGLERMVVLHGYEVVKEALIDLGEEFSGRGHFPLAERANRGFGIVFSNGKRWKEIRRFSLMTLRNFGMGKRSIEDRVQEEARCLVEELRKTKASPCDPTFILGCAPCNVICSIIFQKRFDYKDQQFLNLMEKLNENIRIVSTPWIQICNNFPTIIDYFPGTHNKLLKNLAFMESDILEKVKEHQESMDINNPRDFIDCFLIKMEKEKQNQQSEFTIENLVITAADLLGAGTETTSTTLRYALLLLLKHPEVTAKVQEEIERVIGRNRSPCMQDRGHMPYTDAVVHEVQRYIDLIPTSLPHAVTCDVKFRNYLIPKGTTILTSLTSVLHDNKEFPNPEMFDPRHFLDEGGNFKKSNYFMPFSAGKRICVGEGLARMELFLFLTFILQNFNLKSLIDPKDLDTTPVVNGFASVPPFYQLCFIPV
Protocol: as §1, §2

[1] = Comparative pharmacokinetics study in rats; type: in vivo, SD male rats; conditions: rat
Protocol: Experimental Example 2: Comparative Pharmacokinetics Study in Rats
SD male rats were used as the test animals in this study. The drug concentrations in plasma of the rats by intravenous or oral administration of test compounds WX017, WX047, WX079, WX088 and reference compound at different time points were quantitatively determined by LC/MS/MS, which were used to evaluate the pharmacokinetic profile of the two test drugs in rats.
A clear solution of the test compound was injected into SD rats via the tail vein (overnight fasting, 7-10 weeks old), and the test compound was orally administered to the SD rats (overnight fasting, 7-10 weeks old). Approximately 200 μL of blood was collected from the jugular vein or tail vein of the animals 0.0833, 0.25, 0.5, 1, 2, 4, 6, 8 and 24 hours after administration, and was placed in an anticoagulant tube containing EDTA-K2. The plasma was collected by centrifugation at 3000 g for 15 minutes at 4° C. The plasma concentration was determined by LC-MS/MS. The pharmacokinetic parameters were calculated by the non-compartment model linear logarithmic trapezoidal method using WinNonlin™ Version 6.3 (Pharsight, Mountain View, Calif.) pharmacokinetic software.

[2] = system: human liver microsomal cytochrome P450 isoenzymes; assay: Inhibition of human liver microsomal cytochrome P450 isoenzymes, overall conclusion; type: in vitro ADME; conditions: human liver microsomes
Protocol: as §1, §2

CCR2 = molecular target: T5, CCR2 (Homo sapiens, UniProt P41597); assay: CCR2 in vitro test: intracellular calcium signal detected by FLIPR; type: cell-based; conditions: HEK293 cells expressing CCR2, agonist MCP-1 at EC80, calcium signal
T5 construct: expressed in transfected cells; host or cells: HEK293, clone C7, passage P6
T5 sequence (P41597 whole entry, species assumed): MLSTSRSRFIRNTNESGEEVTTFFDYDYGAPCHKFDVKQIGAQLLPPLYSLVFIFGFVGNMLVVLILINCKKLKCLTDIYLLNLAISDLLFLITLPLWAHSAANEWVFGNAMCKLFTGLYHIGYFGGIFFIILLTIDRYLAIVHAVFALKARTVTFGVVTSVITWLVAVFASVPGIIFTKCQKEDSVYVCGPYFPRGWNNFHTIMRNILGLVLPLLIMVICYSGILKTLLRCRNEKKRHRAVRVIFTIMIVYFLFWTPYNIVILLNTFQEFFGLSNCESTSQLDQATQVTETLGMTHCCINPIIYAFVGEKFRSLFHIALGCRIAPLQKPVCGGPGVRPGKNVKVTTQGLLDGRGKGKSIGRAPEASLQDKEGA
Procedure, shortened: as §3

[3] = male, Sprague-Dawley (SD), plasma, intravenous injection 2 mg/kg

T1 sequence (P10635 whole entry): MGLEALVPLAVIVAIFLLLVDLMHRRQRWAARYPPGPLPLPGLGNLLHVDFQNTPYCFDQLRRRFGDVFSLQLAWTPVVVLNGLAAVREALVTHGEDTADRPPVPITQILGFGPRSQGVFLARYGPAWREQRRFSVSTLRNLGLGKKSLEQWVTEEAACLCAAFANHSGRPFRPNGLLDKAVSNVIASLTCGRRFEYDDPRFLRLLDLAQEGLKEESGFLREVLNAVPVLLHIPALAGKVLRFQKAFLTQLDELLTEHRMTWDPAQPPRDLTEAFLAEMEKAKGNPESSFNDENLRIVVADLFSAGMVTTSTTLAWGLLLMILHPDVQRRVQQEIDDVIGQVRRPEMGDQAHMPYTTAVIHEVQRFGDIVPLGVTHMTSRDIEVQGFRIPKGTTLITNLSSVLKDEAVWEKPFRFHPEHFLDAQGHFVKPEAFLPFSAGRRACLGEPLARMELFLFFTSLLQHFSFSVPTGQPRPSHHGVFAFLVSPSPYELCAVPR

Structure (SMILES): CCCCOCCOc1ccc(-c2ccc(OCC)c(/C=C/C(=O)Nc3ccc([S@+]([O-])Cc4c(C)ncn4CC)cc3)c2)cc1 [WX047]
- IC50 (CYP2D6): > 50000 nM
- IC50 (CCR5): 6.7 nM
- IC50 (CYP2C9): > 50000 nM
- IC50 (CYP2C19): > 50000 nM
- clearance [1, 3]: 0.52 mL/min/kg
- half-life [1, 3]: 3.06 h
- bioavailability ([1]; male, Sprague-Dawley (SD), plasma, oral 10 mg/kg vs intravenous 2 mg/kg): 40.4%
- Area Under a Curve (0-inf) ([1]; intravenous injection 2 mg/kg): 101.904 µM·h
- Area Under a Curve (0-inf/0-last) ([1]; oral 10 mg/kg): 204.785 µM·h
- Peak time ([1]; oral 10 mg/kg): 5.0 h
- Oral plasma system exposure (AUC0-inf) as multiple of the reference compound ([1]; oral, relative to Cenicriviroc): 6.4 times
- Plasma clearance as percent of that of the reference compound ([1]; relative to Cenicriviroc): 33%
- Risk of inhibiting isoenzymes of human liver microsomal cytochrome P450 (conclusion in words) [2]: no risk on inhibiting five isoenzymes
- IC50 (CCR2): 8.2 nM
